Residues, ends and D or L forms follow the SMILES beside them. *: point of attachment. Palmitoyl = CCCCCCCCCCCCCCCC(=O)*

Data set [1] can be described thus: Ex vivo skin penetration study (Franz cell, magnetic arrays moved above epidermis). The note with it: arrays 1 (uni-directional, 27 mT) and 2 (bi-directional, overall 21 mT) of Table 1; 400 μg/ml in 50:50 PG:PB pH 4. The class given is in vitro ADME, human. The procedure: An ex vivo skin penetration study was conducted to compare the ability of different magnetic arrays to enhance penetration of Pal-KTTKS (SEQ ID NO: 1) into the epidermis of human skin. The dermis and epidermis of human skin samples obtained from donors aged 60-65 years were heat separated and the dermis discarded. 20 μL of a Pal-KTTKS (SEQ ID NO: 1) containing composition (400 μg/ml in 50:50 PG:PB at pH 4) was placed on human epidermis in Franz cell. Different magnetic arrays were positioned approximately 1.0 mm above the epidermis samples and moved over the samples at the speed a user might move a cosmetic applicator when applying a skin care product (e.g., about 20-25 cm/sec). Samples were taken and measured at 0, 1, 2, 4, 6, 8, 24 hours. […] For the bi-directional arrays herein, the “1st layer” refers to the layer closest to the skin-contacting surface of the applicator, and the “2nd layer” refers to the layer disposed on the side of the 1st layer opposite the side closest to the skin-contacting surface.

The nature of data set [2]: In vivo skin penetration study #1, Tape Stripping method (active magnetic array vs passive finger application). On the set-up: species or system human. The procedure: An in vivo skin penetration study was conducted to establish the effect of using a skin care product of the present invention by applying a skin care composition comprising Pal-KTTKS (SEQ ID NO: 1) with an applicator comprising a magnetic array. The study compared the penetration of the Pal-KTTKS (SEQ ID NO: 1) in combination with a variety of magnetic arrays (active application) to the penetration of Pal-KTTKS (SEQ ID NO: 1) applied with a finger (passive application). Penetration of Pal-KTTKS (SEQ ID NO: 1) in this example is determined according to the Tape Stripping method. In this example, the level of Pal-KTTKS (SEQ ID NO: 1) present in the extract from each tape strip was measured using HPLC and the results normalized to the protein level measured on the tape strip.
(§1) This method provides a suitable means of measuring the amount of skin care active present in skin, and comparing active versus passive application of the skin care active. Two identical rectangular areas of 15 cm^2 are marked on the volar forearms of volunteers. A measured dose (approximately 30 mg) of the Pal-KTTKS (SEQ ID NO: 1) formulation is applied to the delineated areas using a screw actuated syringe. Active application is carried out on one of the delineated areas using the three-quarter profile of a purpose made applicator (e.g., an applicator presenting one of the magnetic arrays set forth in Table 2). Passive application is accomplished on the other delineated area using the tip of a finger in a sweeping motion identical to that of the active application. The formulation is spread evenly across the entire delineated region using a sweeping motion with a fixed speed of approximately 23 cm/s to […]. The application period is 30 seconds during which time visual inspection is used to ensure even distribution and absorption of the formulation by skin. The application area is then left uncovered for a further 30 minutes to ensure complete absorption. Tape strip samples may be collected and/or analyzed immediately after the complete absorption is ensured or after a waiting period (e.g., after multiple applications of the formulation over multiple hours or days).
(§2) The tape stripping procedure is carried out using 10 commercial pre-cut 22.1 mm tape stripping adhesive discs (e.g., D-SQUAME brand tape strips, available from Cuderm Corporation, or equivalent) with an adhesive area of 3.8 cm^2. The 10 tape strips are applied sequentially to the same sampling site, which ideally enables each tape strip to obtain a sample from deeper within the stratum corneum than the tape strip that preceded it. A 22.1 mm diameter circular region is marked at the center of the application area. A tape stripping adhesive disc is placed over the marked area and even pressure applied using, for example, a neoprene roller, rolled ten times over the adhesive disc. The adhesive disc is removed from the skin surface in a single pulling motion using manual tweezers. To ensure even removal of the skin sample, subsequent discs are removed in a “north, south, east and west” orientation, which is within the skill of the ordinary artisan. Each adhesive disc is non-destructively analyzed for protein content using a suitable instrument (e.g., SquameScan™ 850 instrument commercially available from Heiland Electronics Wetzlar, Germany, or equivalent). The adhesive disc is then immediately placed into a glass vial containing extraction solvent in preparation for subsequent analysis. Solvent extractions are conducted on each tape strip using conventional extraction methods, which are well known to those of ordinary skill in the art, and measuring the amount of Pal-KTTKS (SEQ ID NO: 1) present in the extract, for example, by high performance liquid chromatography (“HPLC”) and/or mass spectrometry.
The procedure is repeated for the remaining nine strips. An additional strip is obtained from outside the area of application of the skin care formulation to serve as a blank sample. […]

Data set [3] can be described thus: In vivo skin penetration study #2, Tape Stripping method (magnetic vs non-magnetic applicator). On the set-up: species or system human. Here is the method: as §1, §2
The procedure is repeated for the remaining nine strips. An additional strip is obtained from outside the area of application of the skin care formulation to serve as a blank sample. The amount of active is normalized to the amount of protein measured. […]

Data set [4] in a line: Diamagnetic susceptibility. The class given is physicochemical. The settings on record: dimensionless.
[5] abbreviates: magnetic applicator with array #8, average across all 10 test sites, in ng (unit assumed).
[6] abbreviates: non-magnetic applicator, average across all 10 test sites, in ng (unit assumed).

As to `CCCCCCCCCCCCCCCC(=O)N[C@@H](CCCCN)C(=O)N[C@H](C(=O)N[C@H](C(=O)N[C@@H](CCCCN)C(=O)N[C@@H](CO)C(=O)O)[C@@H](C)O)[C@@H](C)O` [Pal-KTTKS, palmitoyl-lysine-threonine-threonine-lysine-serine] (Palmitoyl-KTTKS-OH; C-terminus assumed), the “penetration enhancement of Pal-KTTKS into human epidermis” value in data set [1] was “demonstrated the best penetration enhancement”. In addition, the “Enhancement (active/passive)” value in data set [2] (array #4, tape strips 2-4, from average values of Table 11) is given as 1.54; in data set [2] (array #4, tape strips 5-7, from average values of Table 11) it was 2.18; in data set [2] (array #4, tape strips 8-10, from average values of Table 11), 2.98; in data set [2] (array #9, tape strips 2-4, from average values of Table 9), 4.19; in data set [2] (array #9, tape strips 5-7, from average values of Table 9), 2.38; in data set [2] (array #9, tape strips 8-10, from average values of Table 9), 3.78. The “penetration enhancement compared with other magnetic arrays” value in data set [2] (magnetic array #4 (uni-directional)) and in data set [2] (magnetic array #9 (bi-directional)) was “better penetration enhancement than some of the other magnetic arrays tested” in each case. Also, the “Enhancement value Strips 2-10 (active/passive), Avg” value in data set [3] (array #8 vs non-magnetic applicator, average of the enhancement values of all test sites) stood at 4. Also, in data set [3] (setting [5]), the “Sum 2-10 of Pal-KTTKS recovered, active application, Avg” value is 42.02. Besides, the “Sum 6-10 of Pal-KTTKS recovered, active application, Avg” value in data set [3] (setting [5]) amounted to 22.74. The “Sum 2-10 of Pal-KTTKS recovered, passive application, Avg” value in data set [3] (setting [6]) worked out at 20.55. In addition, the “Sum 6-10 of Pal-KTTKS recovered, passive application, Avg” value in data set [3] (setting [6]) is listed as 10.01. In addition, in data set [4], the diamagnetic susceptibility result was “approximately −519”.

(Values after patent US10034827B2, “Skin care product and method of use” (The Procter & Gamble Company, priority 2014, dated 2018).)
